From patent US10870660B2, “Nitrogen-containing condensed ring compounds having dopamine D3 antagonistic effect” (Shionogi & Co., Ltd., priority 2016, dated 2020)

How the values were obtained:
[1] = molecular target: human recombinant dopamine D2 receptor (Homo sapiens (Human), UniProt P14416); assay: Test of binding inhibition for the human dopamine D2 receptor ([3H]-Metylspiperone SPA binding); settings: [3H]-Metylspiperone 1.2 nM, Jump-In HEK cell membranes, read-out: hD2_Ki
Experimental: Cell membranes: Jump-In HEK cell membranes expressing human recombinant dopamine D2 receptor (2 μg/well)
Buffer solution: 50 mM Tris-HCl (35409-45, Nacalai Tesque) (pH 7.4) containing 120 mM NaCl (31320-05, Nacalai Tesque), 1 mM MgCl2.6H2O (20909-55, Nacalai Tesque), 5 mM KCl (28514-75, Nacalai Tesque) and 2 mM CaCl2 (067-31, Nacalai Chemical, Ltd)
Radioligand: (final concentration) 1.2 nM [^3H]-Metylspiperone ([^3H—N-methyl-]-Metylspiperone, NET-856, 83.8 Ci/mmol, PerkinElmer)
(§1) Non-specific ligand: (final concentration) 10 μM Butaclamol [(+)-Butaclamol Hydrochioride, D033, Sigma]
(§2) SPA beads: SPA beads [WGA PVT SPA Scintillatiion Beads, RPNQ0001 (500 mg), RPNQ0060 (2 g), PerkinElmer] (0.2 mg/well)
(§3) Incubation time and temperature: 120 min at 25° C.
(§4) Butaclamol or the compounds of the present invention were weighed and DMSO was added to make a 10 mM solution. This solution was diluted to each concentration.
[^3H]-Metylspiperone was weighed and the buffer solution was added to make a 3.6 nM solution.
(§5) SPA beads were weighed and stirred in water to make a 50 mg/mL solution. Using this solution, a mixed solution with the cell membranes was prepared.
225 nL of the solutions of the non-specific ligand or the compounds of the present invention at each concentration (in case of vehicle, final concentration 0.3% DMSO) were added in each well of a 384-well white/clear bottom microplate (3706, Corning). Jump-In HEK Cell membranes (final reaction amount: 2 μg protein/well), SPA beads (final reaction amount: 0.2 mg/well) and the buffer were mixed and the mixed solution was left still for more than or equal to 1 h at 4° C. Then, 50 μL of the mixture was added to each well of the plate. In addition, 25 μL of 3.6 nM [^3H]-Metylspiperone (final concentration: 1.2 nM) was added to each well. The plate was sealed by putting TopSeal-A 96/384 well (6050185, PerkinElmer) on the top of the plate, mixed using stirring deaerator (Welltornado, FK-62, Sakaki) and incubated for 120 min at 25° C. After incubation, the radioactivity of [^3H]-Metylspiperone which was binded to D2 receptor was determined by liquid scintillation counter (1450 Microbeta, PerkinElmer) in each well. Non-specific binding was calculated based on the radioactivity of [^3H]-Metylspiperone in the presence of 10 μM non-labeled Butaclamol. The total binding was calculated using the radioactivity of [^3H]-Metylspiperone in the absence of the compounds of the present invention (Vehicle). The Ki values were calculated from dose-response curves.
(§6) Binding activities of the compounds of the present invention were calculated from the following Binding Inhibition Rate (%): Inhibition Rate (%)=[1−(c−a)(b−a)]×100(%) • a: Average cpm of non-specific binding • b: Average cpm of total binding • c: Cpm in the presence of each test compound

[2] = molecular target: human recombinant dopamine D3 receptor (Homo sapiens (Human), UniProt P35462); assay: Test of binding inhibition for the human dopamine D3 receptor ([3H]-Metylspiperone SPA binding); settings: [3H]-Metylspiperone 2 nM, Jump-In HEK cell membranes, read-out: hD3_Ki
human recombinant dopamine D3 receptor, sequence (P35462 whole entry): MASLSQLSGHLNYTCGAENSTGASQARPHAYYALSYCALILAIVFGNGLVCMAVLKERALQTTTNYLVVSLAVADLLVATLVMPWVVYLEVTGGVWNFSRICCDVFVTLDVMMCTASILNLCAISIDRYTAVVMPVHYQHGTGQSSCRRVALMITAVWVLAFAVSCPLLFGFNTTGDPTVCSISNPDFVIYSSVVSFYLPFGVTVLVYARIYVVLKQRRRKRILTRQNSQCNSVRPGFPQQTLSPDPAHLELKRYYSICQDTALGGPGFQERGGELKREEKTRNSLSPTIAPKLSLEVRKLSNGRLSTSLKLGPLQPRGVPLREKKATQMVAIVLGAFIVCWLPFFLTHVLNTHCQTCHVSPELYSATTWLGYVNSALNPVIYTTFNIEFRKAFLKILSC
Experimental: Cell membranes: Jump-In HEK cell membranes expressing human recombinant dopamine D3 receptor (4 μg/well)
as §1, §2, §3, §4
[^3H]-Metylspiperone was weighed and the buffer solution was added to make a 6 nM solution.
as §5
Jump-In HEK Cell membranes (final reaction amount: 4 μg/well), SPA beads (final reaction amount: 0.2 mg/well) and Tris-HCl buffer were mixed and the mixed solution was left still for more than 60 min at 4° C. Then, 50 μL of the mixture was added to each well of the plate. In addition, 25 μL of 6 nM [^3H]-Metylspiperone (final concentration: 2 nM) was added to each well. […] Non-specific binding was calculated based on the radioactivity of [^3H]-Metylspiperone in the presence of 10 μM non-labeled Butaclamol. The total binding was calculated based on the radioactivity of [^3H]-Metylspiperone in the absence of the compounds of the present invention (Vehicle). The Ki values were calculated from dose-response curves.
as §6

human recombinant dopamine D2 receptor, sequence (P14416 whole entry): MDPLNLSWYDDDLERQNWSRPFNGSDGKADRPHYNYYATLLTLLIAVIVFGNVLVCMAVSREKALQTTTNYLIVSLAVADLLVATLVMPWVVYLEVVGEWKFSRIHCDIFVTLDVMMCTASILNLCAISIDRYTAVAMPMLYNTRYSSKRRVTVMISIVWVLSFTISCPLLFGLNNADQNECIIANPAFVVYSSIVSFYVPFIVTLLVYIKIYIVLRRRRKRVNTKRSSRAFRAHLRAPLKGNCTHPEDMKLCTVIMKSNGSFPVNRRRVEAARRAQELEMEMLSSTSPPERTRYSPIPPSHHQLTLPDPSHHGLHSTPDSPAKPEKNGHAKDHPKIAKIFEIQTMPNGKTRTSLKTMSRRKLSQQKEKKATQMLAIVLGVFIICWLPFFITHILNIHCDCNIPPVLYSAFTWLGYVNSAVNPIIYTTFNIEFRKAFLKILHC

| SMILES | Ki [1] | Ki [2] |
| --- | --- | --- |
| Cc1ncc(CC(=O)N[C@H]2CC[C@](F)(CCN3CCc4nc(OCC(F)(F)F)sc4CC3)CC2)o1 [III-262] | 560 nM | 0.22 nM |
| Cc1nc(CC(=O)N[C@H]2CC[C@](F)(CCN3CCc4nc(OCC(F)(F)F)sc4CC3)CC2)no1 [III-264] | > 1800 nM | 0.25 nM |
| Cc1cnc(CC(=O)N[C@H]2CC[C@](F)(CCN3CCc4nc(OCC(F)(F)F)sc4CC3)CC2)o1 [III-266] | > 1800 nM | 0.15 nM |
| Cn1cc(OCC(=O)N[C@H]2CC[C@](F)(CCN3CCc4nc(OCC(F)(F)F)sc4CC3)CC2)cn1 [III-268] | 340 nM | 0.39 nM |
| Cc1nnc(CC(=O)N[C@H]2CC[C@](F)(CCN3CCc4nc(OCC(F)(F)F)sc4CC3)CC2)s1 [III-269] | 290 nM | 0.36 nM |
| Cn1cc2ccc(C(=O)N[C@H]3CC[C@H](CCN4CCc5nc(OCC(F)F)sc5CC4)CC3)cc2n1 [III-270] | 1100 nM | 0.6 nM |
| Cc1ncccc1C(=O)N[C@H]1CC[C@H](CCN2CCc3nc(OCC(F)F)sc3CC2)CC1 [III-271] | 1100 nM | 1.2 nM |
| Cc1nnc(CC(=O)N[C@H]2CC[C@H](CCN3CCc4nc(OCC(F)F)sc4CC3)CC2)o1 [III-273] | 570 nM | 0.78 nM |
| Cc1ncc(/C=C/C(=O)N[C@H]2CC[C@H](CCN3CCc4nc(OCC(F)F)sc4CC3)CC2)s1 [III-274] | 140 nM | 0.12 nM |
| O=C1Cc2cccc(C(=O)N[C@H]3CC[C@H](CCN4CCc5nc(OCC(F)F)sc5CC4)CC3)c2N1 [III-280] | 500 nM | 0.11 nM |
| Cn1cc2c(C(=O)N[C@H]3CC[C@H](CCN4CCc5sc(N6CC(F)(F)C6)nc5C4)CC3)cccc2n1 [III-439] | 500 nM | 0.29 nM |
| Cn1cc2c(C(=O)N[C@H]3CC[C@H](CCN4CCc5sc(OCC(C)(F)F)nc5C4)CC3)cccc2n1 [III-441] | 170 nM | 0.24 nM |
| Cc1ncc(CC(=O)N[C@H]2CC[C@H](CCN3CCc4sc(OCC(C)(F)F)nc4C3)CC2)o1 [III-451] | 650 nM | 0.48 nM |
| Cn1cc2c(C(=O)N[C@H]3CC[C@H](CCN4CCc5sc(CCC(F)(F)F)nc5C4)CC3)cccc2n1 [III-452] | 1000 nM | 0.29 nM |
| Cn1cc2c(C(=O)N[C@H]3CC[C@H](CCN4CCc5sc(OCC(F)(F)F)nc5C4)CC3)cccc2n1 [III-464] | 580 nM | 0.37 nM |
| Cn1cc(CC(=O)N[C@H]2CC[C@H](CCN3CCc4sc(OC5CCC(F)(F)C5)nc4C3)CC2)cn1 (stereo partly shown) [III-484] | 850 nM | 0.44 nM |
| Cc1nc(CC(=O)N[C@H]2CC[C@H](CCN3CCc4sc(N5CC(F)(F)C5)nc4C3)CC2)no1 [III-512] | 1100 nM | 0.9 nM |
| CCCOc1nc2c(s1)CCN(CC[C@H]1CC[C@H](NC(=O)c3cccc4nn(C)cc34)CC1)C2 [III-544] | > 1700 nM | 0.55 nM |
| Cn1cc(CC(=O)N[C@H]2CC[C@H](CCN3CCc4sc(OCC(C)(F)F)nc4C3)CC2)c(F)n1 [III-547] | 800 nM | 0.64 nM |
| Cn1ncc(CC(=O)N[C@H]2CC[C@H](CCN3CCc4sc(OCC(C)(F)F)nc4C3)CC2)c1F [III-548] | 830 nM | 0.46 nM |
| Cc1ncccc1C(=O)N[C@H]1CC[C@H](CCN2CCc3sc(OCC(C)(F)F)nc3C2)CC1 [III-555] | 310 nM | 0.4 nM |

| SMILES | Ki [1] | Ki [2] |
| --- | --- | --- |
| Cn1cc(OCC(=O)N[C@H]2CC[C@H](CCN3CCc4sc(OCC(C)(F)F)nc4C3)CC2)cn1 [III-573] | 350 nM | 0.32 nM |
| CC(F)(F)COc1nc2c(s1)CCN(CC[C@H]1CC[C@H](NS(=O)(=O)c3cccc(F)c3)CC1)C2 [III-576] | 79 nM | 0.44 nM |
| O=C(CCC(F)(F)F)N[C@H]1CC[C@H](CCN2CCc3sc(N4CC(F)(F)C4)nc3C2)CC1 [III-580] | 540 nM | 0.25 nM |
| Cc1ncccc1C(=O)N[C@H]1CC[C@H](CCN2CCc3sc(OCC(F)(F)F)nc3C2)CC1 [III-603] | 610 nM | 0.44 nM |
| CN1Cc2c(C(=O)N[C@H]3CC[C@H](CCN4CCc5sc(OCC(F)(F)F)nc5C4)CC3)cccc2C1=O [III-610] | 330 nM | 0.077 nM |
| Cn1cc(CC(=O)N[C@H]2CC[C@H](CCN3CCc4sc(COC(F)(F)F)nc4C3)CC2)cn1 [III-622] | > 1800 nM | 1.2 nM |
| Cn1cc2c(C(=O)N[C@H]3CC[C@H](CCN4CCc5sc(COC(F)(F)F)nc5C4)CC3)cccc2n1 [III-623] | > 1800 nM | 0.83 nM |
| Cn1ccc2c(C(=O)N[C@H]3CC[C@H](CCN4CCc5sc(OCC(C)(F)F)nc5C4)CC3)cccc2c1=O [III-630] | > 1900 nM | 0.16 nM |
| Cn1cc2c(C(=O)N[C@H]3CC[C@H](CCN4CCc5sc(CCC(C)(F)F)nc5C4)CC3)cccc2n1 [III-642] | 920 nM | 0.37 nM |
| O=C(N[C@H]1CO[C@H](CCN2CCc3sc(OCC(F)(F)F)nc3C2)OC1)OCc1ccccc1 [III-659] | 1500 nM | 9.6 nM |
| Cn1cc2c(C(=O)NN3CCC(CCN4CCc5sc(OCC(F)(F)F)nc5C4)CC3)cccc2n1 [III-661] | 1300 nM | 0.5 nM |
| Cn1cc2c(C(=O)N[C@H]3CC[C@H](CCN4CCc5sc(OCC(C)(F)F)nc5C4)CC3)ccc(F)c2n1 [III-666] | 210 nM | 0.2 nM |
| Cc1nnc(CC(=O)N[C@H]2CC[C@H](CCN3CCc4sc(CCC(F)(F)F)nc4C3)CC2)o1 [III-674] | 1100 nM | 1.1 nM |
| Cn1cc2c(C(=O)N[C@H]3CC[C@H](CCN4CCc5sc(CCC(F)F)nc5C4)CC3)cccc2n1 [III-685] | 280 nM | 0.1 nM |
| Cc1ncc(CC(=O)N[C@H]2CC[C@H](CCN3CCc4sc(CCC(F)(F)F)nc4C3)CC2)o1 [III-696] | 800 nM | 0.2 nM |
| CN1Cc2c(C(=O)N[C@H]3CC[C@H](CCN4CCc5sc(CCC(F)(F)F)nc5C4)CC3)cccc2C1=O [III-697] | 220 nM | 0.23 nM |
| Cc1cnc(CC(=O)N[C@H]2CC[C@H](CCN3CCc4sc(CCC(F)(F)F)nc4C3)CC2)o1 [III-698] | 770 nM | 0.52 nM |
| CCN1Cc2c(C(=O)N[C@H]3CC[C@H](CCN4CCc5sc(CCC(F)(F)F)nc5C4)CC3)cccc2C1=O [III-701] | 190 nM | 0.15 nM |
| CCn1c(C(=O)N[C@H]2CC[C@H](CCN3CCc4sc(CCC(F)(F)F)nc4C3)CC2)cccc1=O [III-704] | 380 nM | 0.51 nM |
| Cc1nc(/C=C/C(=O)N[C@H]2CC[C@H](CCN3CCc4sc(N5CC(F)(F)C5)nc4C3)CC2)cs1 [III-706] | 290 nM | 0.051 nM |
